Source: US4556517A, “Carbapenem derivatives” (Shionogi & Co., Ltd., priority 1981, dated 1985)
In brackets after ≈: the same amount, converted by molar mass.

What was measured:
Enterobacter cloacae 233 = assay: Antibacterial Spectrum, agar dilution method; format: cell-based; details: inoculum 10^6 cells/ml, sensitivity disc agar, 37° C. overnight, read-out: Minimum Inhibitory Concentration
Experimental: (§1) Determined by agar dilution method;
(§2) Inoculum size is 10^6 cells/ml;
(§3) Cultivation in sensitivitydisc agar at 37° C. overnight.

[1] = tested on: Escherichia coli NIHJ JC-2; assay: Antibacterial Spectrum, agar dilution method; format: cell-based; details: NIHJJC2, inoculum 10^6 cells/ml, sensitivity disc agar, 37° C. overnight, read-out: Minimum Inhibitory Concentration
Experimental: as §1, §2, §3

[2] = tested on: Klebsiella pneumoniae SRL-1; assay: Antibacterial Spectrum, agar dilution method; format: cell-based; details: SRL1, inoculum 10^6 cells/ml, sensitivity disc agar, 37° C. overnight, read-out: Minimum Inhibitory Concentration
Experimental: as §1, §2, §3

Klebsiella sp. 363(R) = assay: Antibacterial Spectrum, agar dilution method; format: cell-based; details: inoculum 10^6 cells/ml, sensitivity disc agar, 37° C. overnight, read-out: Minimum Inhibitory Concentration
Experimental: as §1, §2, §3

Proteus mirabilis PR-4 = assay: Antibacterial Spectrum, agar dilution method; format: cell-based; details: PR4, inoculum 10^6 cells/ml, sensitivity disc agar, 37° C. overnight, read-out: Minimum Inhibitory Concentration
Experimental: as §1, §2, §3

[3] = tested on: Pseudomonas aeruginosa ATCC 25619; assay: Antibacterial Spectrum, agar dilution method; format: cell-based; details: ATCC25619, inoculum 10^6 cells/ml, sensitivity disc agar, 37° C. overnight, read-out: Minimum Inhibitory Concentration
Experimental: as §1, §2, §3

[4] = tested on: Staphylococcus aureus 209P JC-1; assay: Antibacterial Spectrum, agar dilution method; format: cell-based; details: inoculum 10^6 cells/ml, sensitivity disc agar, 37° C. overnight, read-out: Minimum Inhibitory Concentration
Experimental: as §1, §2, §3

[5] = tested on: Streptococcus pneumoniae I; assay: Antibacterial Spectrum, agar dilution method; format: cell-based; details: inoculum 10^6 cells/ml, sensitivity disc agar, 37° C. overnight, read-out: Minimum Inhibitory Concentration
Experimental: as §1, §2, §3

[6] = target: β-lactamase of Enterobacter cloacae 92 (cephalosporinase type) (Enterobacter cloacae, UniProt P05364); assay: β-Lactamase inhibitory test, cephalosporinase-type; format: biochemical; details: 10 minutes preincubation, room temperature, minimum concentration to inhibit color change of indicator
Sequence of β-lactamase of Enterobacter cloacae 92 (cephalosporinase type) (P05364 21-381): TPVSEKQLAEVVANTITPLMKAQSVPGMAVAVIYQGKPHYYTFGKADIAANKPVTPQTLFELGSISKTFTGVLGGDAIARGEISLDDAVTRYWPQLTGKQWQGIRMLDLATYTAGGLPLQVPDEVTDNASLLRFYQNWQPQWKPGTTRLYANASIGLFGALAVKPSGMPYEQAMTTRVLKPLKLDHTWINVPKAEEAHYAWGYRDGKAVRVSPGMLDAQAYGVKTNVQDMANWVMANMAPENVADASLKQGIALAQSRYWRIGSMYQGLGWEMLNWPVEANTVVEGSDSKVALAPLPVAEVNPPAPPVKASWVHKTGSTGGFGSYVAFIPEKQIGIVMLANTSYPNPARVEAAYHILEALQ
Experimental: *1 producing lactamase of cephalosporinasetype
(§4) *3 The test compound was incubated with enzyme at room temperature for 10
(§5) minutes prior to adding an indicator and the minimum concentration to
(§6) inhibit color change was determined.

[7] = tested on: β-lactamase of Klebsiella sp. 363 (penicillinase type); assay: β-Lactamase inhibitory test, penicillinase-type; format: biochemical; details: 10 minutes preincubation, room temperature, minimum concentration to inhibit color change of indicator
Experimental: *2 producing lactamase of penicillinasetype
as §4, §5, §6

SMILES	MIC (Enterobacter cloacae 233) [µg/mL]	MIC [1] [µg/mL]	MIC [2] [µg/mL]	MIC (Klebsiella sp. 363(R)) [µg/mL]	MIC (Proteus mirabilis PR-4) [µg/mL]	MIC [3] [µg/mL]	MIC [4] [µg/mL]	MIC [5] [µg/mL]	Minimum Effective Concentration [6] [µg/mL]	Minimum Effective Concentration [7] [µg/mL]
CC(OS(=O)(=O)O)C1C(=O)N2C(C(=O)O)=C(SCC(=O)O)CC12 (stereo not drawn) [Deoxy PLM B, 3-Carboxymethylthio-6-(1-hydroxysulfonyloxyethyl)-7-oxo-1-azabicyclo[3.2.0]-hept-2-ene-2-carboxylic acid]	6.25 (≈ 17 µM)	1.56 (≈ 4.25 µM)	0.78 (≈ 2.12 µM)	1.56 (≈ 4.25 µM)	0.78 (≈ 2.12 µM)	> 100	3.13 (≈ 8.52 µM)	1.56 (≈ 4.25 µM)	0.002	0.063
CC(OS(=O)(=O)O)C1C(=O)N2C(C(=O)O)=C(SC(O)O)CC12 (stereo not drawn) [Deoxy PLM C, 3-dihydroxymethylthio-6-(1-hydroxysulfonyloxyethyl)-7-oxo-1-azabicyclo[3.2.0]-hept-2-ene-2-carboxylic acid]	3.13 (≈ 8.81 µM)	0.78 (≈ 2.2 µM)	0.78 (≈ 2.2 µM)	0.78 (≈ 2.2 µM)	0.78 (≈ 2.2 µM)	> 100	0.78 (≈ 2.2 µM)	0.2 (≈ 0.563 µM)	0.002	0.125
CC(OS(=O)(=O)O)C1C(=O)N2C(C(=O)O)=C([S+]([O-])CO)CC12 (stereo not drawn) [Dihydro PLM C, 3-hydroxymethylsulfinyl-6-(1-hydroxysulfonyloxyethyl)-7-oxo-1-azabicyclo[3.2.0]-hept-2-ene-2-carboxylic acid]	> 100	12.5 (≈ 35.2 µM)	25 (≈ 70.4 µM)	12.5 (≈ 35.2 µM)	25 (≈ 70.4 µM)	> 100	12.5 (≈ 35.2 µM)	3.1 (≈ 8.72 µM)	0.008	0.004
